pIC50: −log10 of the molar value.
Biological target: GPR174-v38 (Homo sapiens, UniProt Q9BXC1)
Experiment: Inhibition of PS-induced GPR174 Gs signaling (GloSensor), HEK293 stably transfected with GPR174-v38
Assay type: cell-based
Settings: PS liposomes 1 μM

Q: `O=C(c1ccccc1)N1CCN(c2cc(N3CCCCC3)c(F)cc2[N+](=O)[O-])CC1` [compound 6] was tested. Which “PS-mediated GPR174 Gs signaling (FIGS. 47B-47F)” value (from here on “PS-mediated GPR174 Gs signaling”) did it give?
A: inhibited

Q: `O=[N+]([O-])c1cc(F)c(N2CCCCC2)cc1N1CCN(S(=O)(=O)c2ccccc2)CC1` [compound 11] was tested. Which “PS-mediated GPR174 Gs signaling” value did it give?
A: inhibited

Q: How did the “PS-mediated GPR174 Gs signaling” value turn out when `Cc1ccccc1Nc1nnc(-c2ccc(C)c(S(N)(=O)=O)c2)c2ccccc12` [compound 20] was run?
A: inhibited

Q: With `CCOc1ccc(C2C3=C(CCCC3=O)NC3=C2C(=O)c2ccccc23)cc1` (centres unmarked) [compound 23] as the compound, how does the “PS-mediated GPR174 Gs signaling” value read?
A: inhibited

Q: For `CCOc1ccc(C2C3=C(CCCC3=O)NC3=C2C(=O)c2ccccc23)cc1OCC` (centres unmarked) [compound 30], which “PS-mediated GPR174 Gs signaling” value is on record?
A: inhibited

Same assay, conditions: PS liposomes 1 μM; GPR174-v38 (compound 59: data not shown); read-out: apparent IC50, inhibition of PS-induced GPR174 Gs signaling

Q: With `O=C(c1ccccc1)N1CCN(c2cc(N3CCCCC3)c(F)cc2[N+](=O)[O-])CC1` [compound 6] as the compound, how does the pIC50 read?
A: ~7.00

Q: `O=[N+]([O-])c1cc(F)c(N2CCCCC2)cc1N1CCN(S(=O)(=O)c2ccccc2)CC1` [compound 11] was tested. Which pIC50 did it give?
A: ~7.00

Q: How did the pIC50 turn out when `Cc1ccccc1Nc1nnc(-c2ccc(C)c(S(N)(=O)=O)c2)c2ccccc12` [compound 20] was run?
A: ~5.52

Q: With `CCOc1ccc(C2C3=C(CCCC3=O)NC3=C2C(=O)c2ccccc23)cc1` (centres unmarked) [compound 23] as the compound, how does the pIC50 read?
A: ~6.82

Q: How did the pIC50 turn out when `CCOc1ccc(C2C3=C(CCCC3=O)NC3=C2C(=O)c2ccccc23)cc1OCC` (centres unmarked) [compound 30] was run?
A: ~5.89

Q: `S=C(NCc1ccco1)Nc1ccc(I)cc1` [compound 59] was tested. Which pIC50 did it give?
A: ~5.00
